Reference: ChEMBL document CHEMBL1146479, “Antineoplastic agents. 522. Hernandia peltata (Malaysia) and Hernandia nymphaeifolia (Republic of Maldives)” (2004)
≈ marks a conversion by molar mass, not a printed value.

Assays:
Assay type in all cases: functional
SF-268 = experiment: Anticancer activity against human SF268 cells after 48 hrs by SRB assay; conditions: SF-268, 48 h, read-out: ED50 (the source's name)
NCI-H460 = experiment: Anticancer activity against human NCI-H460 cells after 48 hrs by SRB assay; conditions: NCI-H460, 48 h, read-out: ED50 (the source's name)
BXPC-3 = experiment: Anticancer activity against human BxPC3 cells after 48 hrs by SRB assay; conditions: BXPC-3, 48 h, read-out: ED50 (the source's name)
P388 = experiment: Anticancer activity against mouse P388 cells after 48 hrs; conditions: P388, 48 h, read-out: ED50 (the source's name)
DU-145 = experiment: Anticancer activity against human DU145 cells after 48 hrs by SRB assay; conditions: DU-145, 48 h, read-out: ED50 (the source's name)
MCF7 = experiment: Anticancer activity against human MCF7 cells after 48 hrs by SRB assay; conditions: MCF7, 48 h, read-out: ED50 (the source's name)
KM-20L2 = experiment: Anticancer activity against human KM20L2 cells after 48 hrs by SRB assay; conditions: KM-20L2, 48 h, read-out: ED50 (the source's name)
Neisseria gonorrhoeae = experiment: Antimicrobial activity against Neisseria gonorrhoeae ATCC 49226 by antimicrobial susceptibility testing

In the case of `COc1ccc([C@H]2OC[C@H]3[C@@H]2CO[C@H]3c2ccc(OC)c(OC)c2)cc1OC`, the EC50 (SF-268) is reported as 3.8 µg/mL (≈ 9.83 µM), the EC50 (NCI-H460) is reported as 3.8 µg/mL (≈ 9.83 µM) and the EC50 (BXPC-3) is reported as 3.4 µg/mL (≈ 8.8 µM). It also gave an EC50 (P388) of 1.7 µg/mL (≈ 4.4 µM), an EC50 (DU-145) of 3.1 µg/mL (≈ 8.02 µM) and an EC50 (MCF7) of 3.5 µg/mL (≈ 9.06 µM). The EC50 (KM-20L2) was 3 µg/mL (≈ 7.76 µM).

With `COc1cc([C@@H](O)[C@H]2C(=O)OC[C@@H]2Cc2ccc3c(c2)OCO3)cc(OC)c1OC` [PODORHIZOL] the EC50 (SF-268) was > 10 µg/mL, the EC50 (NCI-H460) was > 10 µg/mL and the EC50 (BXPC-3) was 3.8 µg/mL (≈ 9.13 µM). The MIC (Neisseria gonorrhoeae) was 32 µg/mL (≈ 76.8 µM), the EC50 (P388) was > 1 µg/mL and the EC50 (DU-145) was > 10 µg/mL. For the same compound, the EC50 (MCF7) was 6.6 µg/mL (≈ 15.8 µM) and the EC50 (KM-20L2) was > 10 µg/mL.

With `COc1cc([C@@H]2c3cc4c(cc3C[C@H]3COC(=O)[C@@H]32)OCO4)cc(OC)c1OC` [DESOXYPODOPHYLLOTOXIN] the EC50 (SF-268) was 0.0033 µg/mL (≈ 0.00828 µM), the EC50 (NCI-H460) was 0.0027 µg/mL (≈ 0.00678 µM) and the EC50 (BXPC-3) was 0.0029 µg/mL (≈ 0.00728 µM). For the same compound, the MIC (Neisseria gonorrhoeae) was 32 µg/mL (≈ 80.3 µM), the EC50 (P388) was 0.0023 µg/mL (≈ 0.00577 µM) and the EC50 (DU-145) was 0.0028 µg/mL (≈ 0.00703 µM). For the same compound, the EC50 (MCF7) was 0.0021 µg/mL (≈ 0.00527 µM) and the EC50 (KM-20L2) was 0.0028 µg/mL (≈ 0.00703 µM).

`COc1cc2c(c(OC)c1OC)[C@]13C=C(O)C(=O)C=C1O[C@H]2[C@H]1C(=O)OC[C@@H]1C3` showed an MIC (Neisseria gonorrhoeae) of 32 µg/mL (≈ 79.9 µM).

`COc1cc2c(c(OC)c1OC)-c1cc3c(cc1C[C@H]1COC(=O)[C@@H]1C2)OCO3` [STEGANE] gave an EC50 (SF-268) of 4.9 µg/mL (≈ 12.3 µM), an EC50 (NCI-H460) of 5.8 µg/mL (≈ 14.6 µM) and an EC50 (BXPC-3) of 4.7 µg/mL (≈ 11.8 µM). The EC50 (P388) was 6.1 µg/mL (≈ 15.3 µM), the EC50 (DU-145) was 5.3 µg/mL (≈ 13.3 µM) and the EC50 (MCF7) was 4.3 µg/mL (≈ 10.8 µM). It also gave an EC50 (KM-20L2) of 4.8 µg/mL (≈ 12 µM).

Work on `COc1cc(C[C@H]2COC(=O)[C@@H]2Cc2cc(OC)c(OC)c(OC)c2)ccc1O` [HERNANOL] yielded an MIC (Neisseria gonorrhoeae) of 32 µg/mL (≈ 79.5 µM).

`COc1ccc(CC2COC(O)C2Cc2ccc(OC)c(OC)c2)cc1OC` (stereo not given) [KUSUNOKINOL] was tested, and the MIC (Neisseria gonorrhoeae) was 32 µg/mL (≈ 82.4 µM).

`COc1cc([C@@H]2c3cc4c(cc3C[C@H]3COC(=O)[C@H]32)OCO4)cc(OC)c1OC` [DEOXYPICROPODOPHYLLIN] showed an EC50 (SF-268) of 0.041 µg/mL (≈ 0.103 µM), an EC50 (NCI-H460) of 0.067 µg/mL (≈ 0.168 µM) and an EC50 (BXPC-3) of 0.061 µg/mL (≈ 0.153 µM). The MIC (Neisseria gonorrhoeae) was 32 µg/mL (≈ 80.3 µM), the EC50 (P388) was 0.03 µg/mL (≈ 0.0753 µM) and the EC50 (DU-145) was 0.051 µg/mL (≈ 0.128 µM). For the same compound, the EC50 (MCF7) was 0.026 µg/mL (≈ 0.0653 µM) and the EC50 (KM-20L2) was 0.054 µg/mL (≈ 0.136 µM).

Compound `COc1ccc(C[C@H]2COC(=O)[C@@H]2Cc2ccc(OC)c(OC)c2)cc1OC` has an MIC (Neisseria gonorrhoeae) of 32 µg/mL (≈ 82.8 µM).

`COc1cc([C@@H]2OC[C@H]3[C@@H]2CO[C@@H]3c2ccc3c(c2)OCO3)cc(OC)c1OC` was tested, and the EC50 (SF-268) was > 10 µg/mL, the EC50 (NCI-H460) was > 10 µg/mL and the EC50 (BXPC-3) was > 10 µg/mL. The EC50 (P388) was 1.5 µg/mL (≈ 3.75 µM), the EC50 (DU-145) was > 10 µg/mL and the EC50 (MCF7) was > 10 µg/mL. For the same compound, the EC50 (KM-20L2) was > 10 µg/mL.

`COc1cc(CC2C(Cc3ccc4c(c3)OCO4)COC2O)cc(OC)c1OC` (stereo not given) [CLUSIN] was tested, and the MIC (Neisseria gonorrhoeae) was 32 µg/mL (≈ 79.5 µM).
